Where two headings read alike, the source gives them in different places.
Tests used:
[1] = acute toxicity, single oral administration to rats; details: rat, in vivo, p.o.
Description: (§1) The following Table contains results obtained with the aforementioned particularly preferred compounds inhibiting the intestinal resorption of cholesterol. For each of these compounds there are given the dose(s) administered (in μMol/kg p.o) as well as the cholesterol recovery (CHOREC), expressed in % of controls. Moreover, the Table contains data relating to the acute toxicity of the compounds investigated (LD 50 in mg/kg in the case of a single oral administration to rats): […]

[2] = tested on: intestinal resorption of cholesterol; test: inhibition of the intestinal resorption of cholesterol (cholesterol recovery, CHOREC); assay type: in vivo, normal female Fullinsdorf albino rats; details: rats
Experimental: The compounds to be tested are administered to groups of 6 normal female Fullinsdorf albino rats (body weight about 70 g) by oral intubation. This is followed immediately by oral intubation of a test meal containing radioactive cholesterol. Consecutively, feces are collected for three days, freeze dried and pulverized. An aliquot is burned for evaluation of fecal radioactivity. Controls excrete about 40-50% of the dietary radioactive cholesterol called cholesterol recovery (CHOREC) and arbitrarily set 100%. Animals treated with a substance inhibiting the intestinal resorption of cholesterol show a higher excretion of radioactive cholesterol in comparison with controls. The cholesterol recovery (CHOREC) of treated animals is expressed in % of controls.
as §1

[3] = acute toxicity, single oral administration to mice; details: mouse, in vivo, p.o.
Description: (§2) The following Table contains results obtained in the previously described experiment with representative benzodiazepine derivatives of formula I. In this Table there are given for each benzodiazepine derivative in question the dosage administered (in mg/kg p.o.) as well as the percentage variation in the urine volume, the sodium excretion and the potassium excretion in comparison with the control animals (i.e. in comparison with the animals treated only with aldosterone). Moreover, the Table contains data relating to the acute toxicity of the benzodiazepine derivatives investigated (LD 50 in mg/kg in the case of a single oral administration to mice).

aldosterone = test: aldosterone-antagonistic properties in adrenalectomised rats (urine volume, sodium and potassium excretion); assay type: in vivo, adrenalectomised female Holtzmann rats; details: for response vs control in vivo at 1 mg/kg / response vs control in vivo at 10 mg/kg / response vs control in vivo at 3 mg/kg / response vs control in vivo at 0.1 mg/kg: Rattus norvegicus, po
Experimental: If benzodiazepine derivatives of formula I are administered to the animals before the treatment with aldosterone, then there is observed, in comparison with the animals which are treated only with aldosterone (control animals), a pronounced increase of the sodium excretion (i.e. the sodium retention caused by aldosterone is antagonised), whereas the potassium excretion and the urine volume are influenced to a lesser extent.
The standard experiment is carried out as follows:
Female Holtzmann rates (150-180 g) are bilaterally adrenalectomised 70 to 74 hours before the beginning of the experiment. After the operation, the animals receive a customary rat dry feed and 0.9% sodium chloride solution for drinking. 16-17 hours before the beginning of the experiment the feed is removed from the animals, but they can still drink, as before, 0.9% sodium chloride solution ad libitum. At the beginning of the experiment the substance to be tested as an aldosterone-antagonist is administered to the animals by means of a stomach probe. 30 minutes later the animals receive a subcutaneous injection of […] of aldosterone. After a further 90 minutes, the urinary bladders of the animals are emptied by careful suprapublic pressure, whereupon the animals are placed individually in metabolic cages without food and without drink. The urine of the animals is then collected for 3hours, whereupon their urinary bladders are once more emptied. The spontaneously excreted urine and the remaining urine obtained at the conclusion of the experiment by pressing-out the urinary bladders are collected in graduated centrifuge glasses. Sodium and potassium concentrations in the urine are determined with a flame photometer.
as §2

[4] = read-out: potassium excretion [K+], in %, based on control animals
[5] = read-out: sodium excretion [Na+], in %, based on control animals
[6] = read-out: urine volume, in %, based on control animals
[7] = aldosterone alone, in comparison with untreated animals

| Compound | LD50 [3] | response vs control in vivo at 1 mg/kg (aldosterone; [4]) | response vs control in vivo at 10 mg/kg (aldosterone; [4]) | response vs control in vivo at 1 mg/kg (aldosterone; [5]) | response vs control in vivo at 10 mg/kg (aldosterone; [5]) | response vs control in vivo at 1 mg/kg (aldosterone; [6]) | response vs control in vivo at 10 mg/kg (aldosterone; [6]) | further results |
| --- | --- | --- | --- | --- | --- | --- | --- | --- |
| CC1N=C(c2ccccc2F)c2c(ccc(NC(=O)NCCO)c2Br)N(C)C1=O (racemic) [Example 50, rac-1-[6-bromo-5-(o-fluorophenyl)-2,3-dihydro-1,3-dimethyl-2-oxo-1H-1,4-benzodiazepin-7-yl]-3-(2-hydroxyethyl)urea] | – | – | – | – | – | – | – | LD50 [1]: > 5000 mg/kg; cholesterol recovery (CHOREC), in % of controls ([2]; 10 μMol/kg p.o.): 132%; cholesterol recovery (CHOREC), in % of controls ([2]; 30 μMol/kg p.o.): 160%; cholesterol recovery (CHOREC), in % of controls ([2]; 100 μMol/kg p.o.): 155%; cholesterol recovery (CHOREC), in % of controls ([2]; 300 μMol/kg p.o.): 169%; cholesterol recovery (CHOREC), in % of controls ([2]; 1000 μMol/kg p.o.): 189% |
| CN1C(=O)CN=C(c2ccccc2F)c2cc(NC(=O)N3CC3)ccc21 [Example 5, N-[5-(o-fluorophenyl)-2,3-dihydro-1-methyl-2-oxo-1H-1,4-benzodiazepin-7-yl]-1-aziridinecarboxamide] | > 5000 mg/kg | 146% | 108% | 294% | 237% | 192% | 129% | – |
| CNC(=O)Nc1ccc2c(c1)C(c1ccccc1F)=NCC(=O)N2C [Example 1, 1-[5-(o-Fluorophenyl)-2,3-dihydro-1-methyl-2-oxo-1H-1,4-benzodiazepin-7-yl]-3-methylurea] | > 5000 mg/kg | – | – | – | – | – | – | response vs control in vivo at 3 mg/kg (aldosterone; [4]): 84%; response vs control in vivo at 3 mg/kg (aldosterone; [5]): 182%; response vs control in vivo at 3 mg/kg (aldosterone; [6]): 95% |
| CCNC(=O)Nc1ccc2c(c1Cl)C(c1ccccc1F)=NCC(=O)N2C [Example 34, 1-[6-chloro-5-(o-fluorophenyl)-2,3-dihydro-1-methyl-2-oxo-1H-1,4-benzodiazepin-7-yl]-3-ethylurea] | 2500 to 5000 mg/kg | – | 149% | – | 271% | – | 156% | – |
| CC(CO)NC(=O)Nc1ccc2c(c1)C(c1ccccc1F)=NCC(=O)N2C (racemic) [Example 8, rac-1-[5-(o-fluorophenyl)-2,3-dihydro-1-methyl-2-oxo-1H-1,4-benzodiazepin-7-yl]-3-(2-hydroxy-1-methylethyl)urea] | > 5000 mg/kg | 80% | 129% | 127% | 452% | 73% | 200% | – |
| CN1C(=O)CN=C(c2ccccc2F)c2cc(NC(=O)NCc3ccccc3)ccc21 [Example 3, 1-benzyl-3-[5-(o-fluorophenyl)-2,3-dihydro-1-methyl-2-oxo-1H-1,4-benzodiazepin-7-yl]urea] | > 5000 mg/kg | 153% | – | 255% | – | 139% | – | – |
| CN1C(=O)CN=C(c2ccccc2F)c2cc(NC(=O)NCCO)ccc21 [Example 7, 1-[5-(o-fluorophenyl)-2,3-dihydro-1-methyl-2-oxo-1H-1,4-benzodiazepin-7-yl]-3-(2-hydroxyethyl)urea] | > 5000 mg/kg | – | – | – | – | – | – | response vs control in vivo at 0.1 mg/kg (aldosterone; [4]): 121%; response vs control in vivo at 0.1 mg/kg (aldosterone; [5]): 247%; response vs control in vivo at 0.1 mg/kg (aldosterone; [6]): 85% |
| CN1C(=O)CN=C(c2ccccc2F)c2c1ccc(NC(=O)NCCO)c2Cl [Example 13, 1-[6-chloro-5-(o-fluorophenyl)-2,3-dihydro-1-methyl-2-oxo-1H-1,4-benzodiazepin-7-yl]-3-(2-hydroxyethyl)urea] | > 5000 mg/kg | 110% | – | 242% | – | 140% | – | – |
| CC1N=C(c2ccccc2Cl)c2c(ccc(NC(=O)NCCO)c2Cl)N(C)C1=O (racemic) [Example 49, rac-1-[6-chloro-5-(o-chlorophenyl)-2,3-dihydro-1,3-dimethyl-2-oxo-1H-1,4-benzodiazepin-7-yl]-3-(2-hydroxyethyl)urea] | – | – | – | – | – | – | – | LD50 [1]: > 5000 mg/kg; cholesterol recovery (CHOREC), in % of controls ([2]; 1000 μMol/kg p.o.): 188% |
| CCN(C)C(=O)Nc1ccc2c(c1Cl)C(c1ccccc1F)=NCC(=O)N2C [Example 12, 3-[6-chloro-5-(o-fluorophenyl)-2,3-dihydro-1-methyl-2-oxo-1H-1,4-benzodiazepin-7-yl]-1-ethyl-1-methylurea] | 2500 to 5000 mg/kg | 118% | – | 278% | – | 136% | – | – |
| CCN(CC)C(=O)Nc1ccc2c(c1Cl)C(c1ccccc1F)=NCC(=O)N2C [Example 11, 3-[6-chloro-5-(o-fluorophenyl)-2,3-dihydro-1-methyl-2-oxo-1H-1,4-benzodiazepin-7-yl]-1,1-diethylurea] | > 5000 mg/kg | – | 110% | – | 236% | – | 124% | – |
| CN(C)C(=O)Nc1ccc2c(c1)C(c1ccccc1F)=NCC(=O)N2C [Example 32, 3-[5-(o-fluorophenyl)-2,3-dihydro-1-methyl-2-oxo-1H-1,4-benzodiazepin-7-yl]-1,1-dimethylurea] | > 5000 mg/kg | – | 91% | – | 190% | – | 102% | – |
| CNC(=O)Nc1ccc2c(c1Cl)C(c1ccccc1F)=NCC(=O)N2C [Example 9, 1-[6-chloro-5-(o-fluorophenyl)-2,3-dihydro-1-methyl-2-oxo-1H-1,4-benzodiazepin-7-yl]-3-methylurea] | 1250 to 2500 mg/kg | 91% | – | 330% | – | 178% | – | – |
| C[C@]12CCC(=O)C=C1CC[C@@H]1[C@@H]2[C@@H](O)C[C@]2(C=O)[C@@H](C(=O)CO)CC[C@@H]12 [aldosterone, reference compound] | – | – | – | – | – | – | – | excreted urine volume (aldosterone; [7]): reduction of the excreted urine volume; potassium excretion (aldosterone; [7]): increased potassium excretion; sodium excretion (aldosterone; [7]): pronounced reduction of the sodium excretion |
| CCCCNC(=O)Nc1ccc2c(c1Cl)C(c1ccccc1F)=NCC(=O)N2C [Example 10, 1-butyl-3-[6-chloro-5-(o-fluorophenyl)-2,3-dihydro-1-methyl-2-oxo-1H-1,4-benzodiazepin-7-yl]urea] | > 5000 mg/kg | 104% | – | 380% | – | 175% | – | – |
| CCN(C)C(=O)Nc1ccc2c(c1)C(c1ccccc1F)=NCC(=O)N2C [Example 4, 1-ethyl-3-[5-(o-fluorophenyl)-2,3-dihydro-1-methyl-2-oxo-1H-1,4-benzodiazepin-7-yl]-1-methylurea] | > 5000 mg/kg | 97% | – | 291% | – | 100% | – | – |
| COc1ccc(NC(=O)Nc2ccc3c(c2)C(c2ccccc2F)=NCC(=O)N3C)cc1 [Example 33, 1-[5-(o-fluorophenyl)-2,3-dihydro-1-methyl-2-oxo-1H-1,4-benzodiazepin-7-yl]-3-(p-methoxyphenyl)urea] | > 5000 mg/kg | – | 145% | – | 240% | – | 117% | – |
| CN1C(=O)CN=C(c2ccccc2F)c2cc(NC(=O)NC(C)(C)C)ccc21 [Example 2, 1-tert.butyl-3-[5-(o-fluorophenyl)-2,3-dihydro-1-methyl-2-oxo-1H-1,4-benzodiazepin-7-yl]urea] | 600 to 1200 mg/kg | 132% | 70% | 236% | 234% | 194% | 105% | – |
| CN1C(=O)CN=C(c2ccccc2F)c2cc(NC(=O)N3CCCC3)ccc21 [Example 6, N-[5-(o-fluorophenyl)-2,3-dihydro-1-methyl-2-oxo-1H-1,4-benzodiazepin-7-yl]-1-pyrrolidinecarboxamide] | > 5000 mg/kg | 112% | – | 308% | – | 184% | – | – |

Reference: patent publication US4299767A, “Benzodiazepine derivatives” (Hoffmann-La Roche Inc., priority 1978, dated 1981)
